From patent US9944607B2, “Thiohydantoin derivatives and uses thereof” (Whitehead Institute for Biomedical Research, priority 2012, dated 2018)

Tests used:
Candida albicans CaCi-2 = experiment: Primary assay: C. albicans CaCi-2 growth inhibition (Alamar Blue); type: cell-based
Candida albicans CaCi-17 = experiment: Primary assay: C. albicans CaCi-17 growth inhibition (Alamar Blue); type: cell-based; settings: Candida albicans, CACI17, Tables 9, 10, 12; AID 623897; read-out: C. albicans CaCi-17 growth inhibition IC50
[1] = test system: NIH-3T3 mammalian fibroblasts; experiment: Counterscreen mammalian cell toxicity assay (Alamar Blue); type: cell-based, murine; settings: Mus musculus, NIH3T3, Tables 9, 10, 12; AID 602394; read-out: Murine 3T3 fibroblasts growth inhibition (fibroblast toxicity) IC50
In short: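 Quiescent NIH-3T3 fibroblasts, cultured overnight, exposed to 100 nL pinned compound for 48 h at 37° C, 5% CO2. Alamar Blue added to 1:200 final, 2-3 h further incubation; fluorescence (RFU) read as relative cell growth.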

[2] = Plasma stability, human plasma; type: in vitro ADME; settings: 37° C., 5 μM
Protocol: (§1) Plasma stability was determined at 37° C. at 5 hours in both human and mouse plasma. Each compound was prepared in duplicate at 5 μM in plasma diluted 50/50 (v/v) with PBS pH 7.4 (0.95% acetonitrile, 0.05% DMSO). Compounds were incubated at 37° C. for 5 hours with a 250-rpm orbital shake with time points taken at 0 hours and 5 hours.

[3] = Plasma stability, mouse plasma; type: in vitro ADME; settings: 37° C., 5 μM
Protocol: as §1

mitochondrial function = settings: FIG. 1 legend, known inhibitors; cited from earlier work
[4] = Plasma protein binding by equilibrium dialysis, human plasma; type: in vitro ADME; settings: pH 7.4, 37° C., read-out: Plasma protein binding (% bound), Human (converted)
Protocol: (§2) Plasma protein binding was determined by equilibrium dialysis using the Rapid Equilibrium Dialysis (RED) device (Pierce Biotechnology, Rockford, Ill.) for both human and mouse plasma. Each compound was prepared in duplicate at 5 μM in plasma (0.95% acetonitrile, 0.05% DMSO) and added to one side of the membrane (200 μL) with PBS pH 7.4 added to the other side (350 μL). Compounds were incubated at 37° C. for 5 hours with a 250-rpm orbital shake.

[5] = Plasma protein binding by equilibrium dialysis, mouse plasma; type: in vitro ADME; settings: pH 7.4, murine plasma, 37° C., read-out: Plasma protein binding (% bound), Murine
Protocol: as §2

CCOC(=O)N1C(=O)C2(CCCCC2)N(c2ccc(C)cc2)C1=S [CID 3889161]
IC50 (Candida albicans CaCi-2; Candida albicans, CACI2, Tables 9, 10, 12, AID 623899, read-out: C. albicans CaCi-2 growth inhibition IC50): 300 nM
IC50 (Candida albicans CaCi-17): 8.5 µM
IC50 [1]: > 26 µM
Plasma stability (% remaining after 5 hours), Human [2]: <1.0%
Plasma stability (% remaining after 5 hours), Murine [3]: <1.0%

Antimycin
Inhibition of mitochondrial function (in words) (mitochondrial function): potent, but non-selective

Cc1ccc(N2C(=S)N(C)C(=O)C23CCCCC3)cc1 [CID 56604835]
Activity against C. albicans (Candida albicans CaCi-2; CaCi-2, or both test strains (CaCi-2, CaCi-17) where the sentence names none): no activity
Plasma stability (% remaining after 5 hours), Human [2]: 95.7%
Plasma stability (% remaining after 5 hours), Murine [3]: 96.6%
fraction unbound at 5 h, 5 μM [4]: 0.014
fraction unbound at 5 h, 5 μM [5]: 0.001
